For data set [1], the system named is Fusarium graminearum, Syn. Gibberella zeae. The data set can be described thus: whole plant or invertebrate. In kind it is in vivo. As to conditions: in Triticum aestivum, read-out: inhibition (preventative fungicidal activity).
Data set [2] deals with Fusarium culmorum. The data set can be described thus: whole plant or invertebrate. In kind it is in vivo. The note with it: in Triticum aestivum, read-out: inhibition (preventative fungicidal activity).
Data set [3] deals with Pyrenophora teres. Briefly: Action against Pyrenophora teres (net blotch), barley leaf segments, preventive. In kind it is in vivo. The note with it: foliar, 60 ppm active ingredient, sprayed before inoculation, assessed 4 dpi, read-out: inhibition (preventive fungicidal activity). How it is done:
Barley leaf segments are placed on agar in multiwell plates (24-well format) and sprayed with test solutions (60 ppm active ingredient). After drying, the leaf disks are inoculated with a spore suspension of the fungus. After appropriate incubation the activity of a compound is assessed 4 dpi (days after inoculation) as preventive fungicidal activity.

Data set [4] concerns Monographella nivalis (Microdochium nivale). Briefly: Action against Monographella nivalis/liquid culture (foot rot cereals). In kind it is cell-based. The note with it: liquid culture (PDB), 200 ppm active ingredient, 24° C., photometrically after 4-6 days. Here is the method: Conidia of the fungus from cryogenic storage are directly mixed into nutrient broth (PDB potato dextrose broth). After placing a (DMSO) solution of the test compounds (200 ppm active ingredient) into a microtiter plate (96-well format) the nutrient broth containing the fungal spores is added. The test plates are incubated at 24° C. and the inhibition of growth is measured photometrically after 4-6 days.

The subject of data set [5] is Phaeosphaeria nodorum (Septoria nodorum). Briefly: Action against Phaeosphaeria nodorum/wheat/leaf disc preventative (glume blotch). As to conditions: wheat leaf segments, 60 ppm active ingredient, sprayed before inoculation, assessed 4 dpi. In kind it is in vivo. How it is done: Wheat leaf segments are placed on agar in a multiwell plate (24-well format) and sprayed with test solutions (60 ppm active ingredient). After drying, the leaf disks are inoculated with a spore suspension of the fungus. After appropriate incubation the activity of a compound is assessed 4 dpi (days after inoculation) as preventive fungicidal activity.

For data set [6], the system named is Puccinia recondita. Briefly: Action against Puccinia recondita/wheat/leaf disc curative (brown rust). In kind it is in vivo. The note with it: wheat leaf segments, 200 ppm active ingredient, applied one day after inoculation, assessed 8 dpi. The source says:
Wheat leaf segments are placed on agar in multiwell plates (24-well format). The leaf disks are then inoculated with a spore suspension of the fungus. One day after inoculation the test solution is applied (200 ppm active ingredient).

This note sets out measurements from patent US8268877B2, “Microbiocides” (Syngenta Crop Protection, LLC, priority 2009, dated 2012).

In general, inhibition refers to the share of the control response that was lost under treatment. By melting point is commonly meant the temperature of the solid-liquid transition. Turning to `CON(C(=O)c1cn(C)nc1C(F)F)C(C)Cc1sc2ccc(Cl)cc2c1Cl` (centres unmarked) [Compound 1.001, 3-Difluoromethyl-1-methyl-1H-pyrazole-4-carboxylic acid [2-(3,5-dichlorobenzo[b]thiophen-2-yl)-1-methyl-ethyl]methoxyamide], the melting point lay within 129 to 131 °C. The inhibition at 60 ppm in data set [1] was at least 80%. The inhibition at 60 ppm in data set [2] is at least 80%. In addition, the inhibition at 60 ppm in data set [3] was at least 80%.

By inhibition of growth is commonly meant how much of the control response was suppressed. A lower inhibition of growth goes with a weak effect. `CON(C(=O)c1cn(C)nc1C(F)F)C(C)Cc1sc2cc(Cl)ccc2c1Cl` (centres unmarked) [Compound 1.002] displayed an inhibition of growth in data set [4] of 80%. Besides, the “inhibition (preventive fungicidal activity)” value in data set [5] is listed as 80%.

Consider `CON(C(=O)c1cn(C)nc1C(F)F)C(C)Cc1sc2ccc(Br)cc2c1Cl` (centres unmarked) [Compound 1.006], for which the inhibition of growth in data set [4] was 80%. In addition, the “inhibition (preventive fungicidal activity)” value in data set [5] is given as 80%. The “inhibition (curative fungicidal activity)” value in data set [6] stood at 80%.

The compound `CC(Cc1sc2ccc(Cl)cc2c1Cl)N(O)C(=O)c1cn(C)nc1C(F)F` (centres unmarked) [Compound 1.010] yielded an inhibition of growth in data set [4] of 80%.

`COC(c1sc2cc(Cl)ccc2c1Cl)C(C)N(OC)C(=O)c1cn(C)nc1C(F)F` (centres unmarked) [Compound 1.015] showed an inhibition of growth in data set [4] of 80%. The “inhibition (preventive fungicidal activity)” value in data set [5] is listed as 80%.

As for `COC(c1sc2ccc(Br)cc2c1Cl)C(C)N(OC)C(=O)c1cn(C)nc1C(F)F` (centres unmarked) [Compound 1.016], the inhibition of growth in data set [4] worked out at 80%.

For `CON(C(=O)c1cn(C)nc1C(F)(F)F)C(C)Cc1sc2cc(Cl)ccc2c1Cl` (centres unmarked) [Compound 2.002], in data set [4], the inhibition of growth worked out at 80%. For the same compound, the “inhibition (preventive fungicidal activity)” value in data set [5] came out at 80%.

In data set [4], `COC(c1sc2cc(Cl)ccc2c1Cl)C(C)N(OC)C(=O)c1cn(C)nc1C(F)(F)F` (centres unmarked) [Compound 2.015] registered an inhibition of growth of 80%.

For `CON(C(=O)c1c(C)nn(C)c1F)C(C)Cc1sc2cc(Cl)ccc2c1Cl` (centres unmarked) [Compound 3.002], in data set [5], the “inhibition (preventive fungicidal activity)” value amounted to 80%.
